Molecular target: Factor D (Homo sapiens (Human), UniProt P00746)
Assay: biochemical
Assay type: biochemical
Conditions: read-out: IC50

Factor D, sequence (P00746 26-253): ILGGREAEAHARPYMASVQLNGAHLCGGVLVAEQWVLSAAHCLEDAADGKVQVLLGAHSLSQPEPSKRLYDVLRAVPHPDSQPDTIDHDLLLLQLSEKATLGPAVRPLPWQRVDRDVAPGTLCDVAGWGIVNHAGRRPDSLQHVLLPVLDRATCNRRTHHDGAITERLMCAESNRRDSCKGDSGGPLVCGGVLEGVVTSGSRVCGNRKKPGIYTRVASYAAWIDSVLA

NC(=O)n1cc(NC(=O)N2[C@@H](c3ccccc3)CC[C@H]2C(=O)Nc2cccc(OC(F)(F)F)c2)c2ccccc21 [Example 273, (2S,5R)-5-Phenyl-pyrrolidine-1,2-dicarboxylic acid 1-[(1-carbamoyl-1H-indol-3-yl)-amide] 2-[(3-trifluoromethoxy-phenyl)-amide]]
IC50: 2260 nM

NC(=O)c1nn(CC(=O)N2[C@@H]3C[C@@H]3C[C@H]2C(=O)Nc2nc(Br)cs2)c2ccccc12 [Example 742, 1-{2-[(1R,3S,5R)-3-(4-Bromo-thiazol-2-ylcarbamoyl)-2-aza-bicyclo[3.1.0]hex-2-yl]-2-oxo-ethyl}-1H-indazole-3-carboxylic acid amide]
IC50: 37 nM

NC(=O)n1cc(NC(=O)N2C3CC3C[C@H]2C(=O)NCc2cncc(Cl)c2)c2ccccc21 (stereo partly drawn) [Example 228, (1R,3S,5R)-2-Aza-bicyclo[3.1.0]hexane-2,3-dicarboxylic acid 2-[(1-carbamoyl-1H-indol-3-yl)-amide] 3-[(5-chloro-pyridin-3-ylmethyl)-amide]]
IC50: 100 nM

[N-]=[N+]=NC[C@H]1CC[C@@H](C(=O)Nc2cccc(OC(F)(F)F)c2)N1C(=O)Nc1cn(C(N)=O)c2ccccc12 [Example 179, (2S,5R)-5-azidomethyl-pyrrolidine-1,2-dicarboxylic acid 1-[(1-carbamoyl-1H-indol-3-yl)-amide]2-[(3-trifluoromethoxy-phenyl)-amide]]
IC50: 400 nM

NC(=O)n1cc(CC(=O)N2NCCC2C(=O)NCc2cccc(Cl)c2)c2ccccc21 (centres unmarked) [Example 469, 3-{2-[5-(3-Chloro-benzylcarbamoyl)-pyrazolidin-1-yl]-2-oxo-ethyl}-indole-1-carboxylic acid amide]
IC50: 3350 nM

CC(=O)c1nn(CC(=O)N2[C@@H]3C[C@@H]3C[C@H]2C(=O)Nc2cccc(OC(F)(F)F)c2F)c2cc(C(=O)O)ccc12 [Example 725]
IC50: 18 nM

C[C@@H]1CCN(C(=O)Nc2cn(C(N)=O)c3ccccc23)[C@@H]1C(=O)NCc1cccc(Cl)c1F [Example 126, (2S,3R)-3-Methyl-pyrrolidine-1,2-dicarboxylic acid 1-[(1-carbamoyl-1H-indol-3-yl)-amide] 2-(3-chloro-2-fluoro-benzylamide)]
IC50: 100 nM

COC1CCN(Cc2cc(Cl)c(F)c(CNC(=O)[C@@H]3C[C@@H](F)CN3C(=O)Nc3cn(C(N)=O)c4ccccc34)c2)CC1 [Example 20, (2S,4R)-4-Fluoro-pyrrolidine-1,2-dicarboxylic acid 1-[(1-carbamoyl-1H-indol-3-yl)-amide] 2-(3-chloro-2-fluoro-5-(4-methoxy-piperidin-1-ylmethyl)-benzylamide]]
IC50: 1130 nM

C[C@@]1(F)C[C@@H](C(=O)NCc2cccc(Cl)c2F)N(C(=O)Nc2cn(C(N)=O)c3ccc(OCCO)cc23)C1 [Example 383, 2S,4R)-4-Fluoro-4-methyl-pyrrolidine-1,2-dicarboxylic acid 1-{[1-carbamoyl-5-(2-hydroxy-ethoxy)-1H-indol-3-yl]-amide}2-(3-chloro-2-fluoro-benzylamide]
IC50: 4 nM

NC(=O)n1cc(NC(=O)N2C3CC3C[C@H]2C(=O)NCc2cccc(Cl)c2)c2ccccc21 (stereo partly drawn) [Example 183, (1R,3S,5R)-2-Aza-bicyclo[3.1.0]hexane-2,3-dicarboxylic acid 2-[(1-carbamoyl-1H-indol-3-yl)-amide] 3-(3-chloro-benzylamide)]
IC50: 20 nM

NC(=O)c1cccc(NC(=O)[C@@H]2CCCN2C(=O)Nc2cn(C(N)=O)c3ccccc23)c1 [Example 324, (S)-Pyrrolidine-1,2-dicarboxylic acid 1-[(1-carbamoyl-1H-indol-3-yl)-amino] 2-[(3-carbamoyl-phenyl)-amide]]
IC50: 4250 nM

NC(=O)n1cc(NC(=O)N2CCS[C@H]2C(=O)NCc2cnc(Cl)s2)c2ccccc21 [Example 263, (S)-Thiazolidine-2,3-dicarboxylic acid 3-[(1-carbamoyl-1H-indol-3-yl)-amide] 2-[(2-chloro-thiazol-5-ylmethyl)-amide]]
IC50: 400 nM

C[C@@]1(F)C[C@@H](C(=O)N[C@H](CO)c2cccc(Cl)c2F)N(C(=O)Nc2cn(C(N)=O)c3ccccc23)C1 [Example 239, (2S,4R)-4-Fluoro-4-methyl-pyrrolidine-1,2-dicarboxylic acid 1-[(1-carbamoyl-1H-indol-3-yl)-amide] 2-{[(S)-1-(3-chloro-2-fluoro-phenyl)-2-hydroxy-ethyl]-amide}]
IC50: 52 nM

NC(=O)n1cc(NC(=O)N2CC[C@H]2C(=O)Nc2cccc(OC(F)(F)F)c2)c2ccccc21 [Example 299, (S)-Azetidine-1,2-dicarboxylic acid 1-[(1-carbamoyl-1H-indol-3-yl)-amide] 2-[(3-trifluoromethoxy-phenyl)-amide]]
IC50: 1800 nM

NC(=O)c1cn(CC(=O)N2C[C@H](F)C[C@H]2C(=O)NCc2cccc(Cl)c2F)c2cc(F)c(F)cc12 [Example 492, 1-{2-[(2S,4R)-2-(3-Chloro-2-fluoro-benzylcarbamoyl)-4-fluoro-pyrrolidin-1-yl]-2-oxo-ethyl}-5,6-difluoro-1H-indole-3-carboxylic acid amide]
IC50: 237 nM

NC(=O)n1cc(NC(=O)N2C[C@@H](N)C[C@H]2C(=O)NCCc2ccccc2F)c2ccccc21 [Example 88, (2S,4S)-4-Amino-pyrrolidine-1,2-dicarboxylic acid 1-[(1-carbamoyl-1Hindol-3-yl)-amide] 2-{[2-(2-fluoro-phenyl)-ethyl]-amide}]
IC50: 6800 nM

CC(=O)c1nn(CC(=O)N2[C@@H]3C[C@@H]3C[C@H]2C(=O)NCc2cccc(Cl)c2F)c2cc(C(=O)O)ccc12 [Example 639, 3-Acetyl-1-{2-[(1R,3S,5R)-3-(3-chloro-2-fluoro-benzylcarbamoyl)-2-aza-bicyclo[3.1.0]hex-2-yl]-2-oxo-ethyl}-1H-indazole-6-carboxylic acid]
IC50: 62 nM

CC(=O)c1cn(CC(=O)N2C[C@H]3C[C@H]3[C@H]2C(=O)NCc2cccc(Cl)c2F)c2cnccc12 [Example 506, (1R,2S,5S)-3-[2-(3-Acetyl-pyrrolo[2,3-c]pyridin-1-yl)-acetyl]-3-aza-bicyclo[3.1.0] hexane-2-carboxylic acid 3-chloro-2-fluoro-benzylamide]
IC50: 331 nM

N#C[C@H]1C[C@@H](C(=O)Nc2cccc(OC(F)(F)F)c2F)N(C(=O)Nc2cn(C(N)=O)c3ccccc23)C1 [Example 188, (2S,4S)-4-cyano-pyrrolidine-1,2-dicarboxylic acid 1-[(1-carbamoyl-1H-indol-3-yl)-amide]2-[(2-fluoro-3-trifluoromethoxy-phenyl)-amide]]
IC50: 1070 nM

NC(=O)n1cc(NC(=O)N2C[C@H](F)C[C@H]2C(=O)Nc2ccncc2F)c2ccccc21 [Example 323, (2S,4R)-4-Fluoro-pyrrolidine-1,2-dicarboxylic acid 1-[(1-carbamoyl-1H-indol-3-yl)-amide] 2-[(3-fluoro-pyridin-4-yl)-amide]]
IC50: 902 nM

NC(=O)n1cc(NC(=O)N2CCC[C@H]2C(=O)Nc2cccc(OC(F)(F)F)c2)c2ccc(OCc3ccccc3)cc21 [Example 313, (S)-Pyrrolidine-1,2-dicarboxylic acid 1-[(6-benzyloxy-1-carbamoyl-1H-indol-3-yl)-amide]2-[(3-trifluoromethoxy-phenyl)-amide]]
IC50: 1300 nM

NC[C@@]1(F)C[C@@H](C(=O)NCc2c(F)ccc(Cl)c2F)N(C(=O)Nc2cn(C(N)=O)c3ccccc23)C1 [Example 411, (2S,4S)-4-aminomethyl-4-fluoro-pyrrolidine-1,2-dicarboxylic acid 1-[(1-carbamoyl-1H-indol-3-yl)-amide]2-(3-chloro-2,6-difluoro-benzylamide)]
IC50: 26 nM

NC(=O)n1cc(NC(=O)N2C[C@@H](N)C[C@H]2C(=O)NCc2ccc(Cl)s2)c2ccccc21 [Example 66, (2S,4S)-4-Amino-pyrrolidine-1,2-dicarboxylic acid 1-[(1-carbamoyl-1H-indol-3-yl)-amide] 2-[(5-chloro-thiophen-2-ylmethyl)-amide]]
IC50: 65 nM

CCc1cc2c(C(N)=O)nn(CC(=O)N3[C@@H]4C[C@@H]4C[C@H]3C(=O)Nc3cccc(Br)n3)c2cn1 [Example 735, 1-{2-[(1R,3S,5R)-3-(6-Bromo-pyridin-2-ylcarbamoyl)-2-aza-bicyclo[3.1.0]hex-2-yl]-2-oxo-ethyl}-5-ethyl-1H-pyrazolo[3,4-c]pyridine-3-carboxylic acid amide]
IC50: 3 nM

NC(=O)n1cc(CC(=O)N2[C@@H]3C[C@@H]3C[C@H]2C(=O)N[C@H](CO)c2cccc(Cl)c2F)c2ccccc21 [Example 449, 3-(2-{(1R,3S,5R)-3-[(S)-1-(3-Chloro-2-fluoro-phenyl)-2-hydroxy-ethylcarbamoyl]-2-aza-bicyclo[3.1.0]hex-2-yl}-2-oxo-ethyl)-indole-1-carboxylic acid amide]
IC50: 51 nM

CCc1cccc(NC(=O)[C@@H]2CC3CC3N2C(=O)Nc2cn(C(N)=O)c3ccccc23)n1 (stereo partly drawn) [Example 158, (1R,3S,5R)-2-Aza-bicyclo[3.1.0]hexane-2,3-dicarboxylic acid 2-[(1-carbamoyl-1H-indol-3-yl)-amide] 3-[(6-ethyl-pyridin-2-yl)-amide]]
IC50: 80 nM

CN(C)CCOc1ccc2c(c1)c(CC(=O)N1[C@@H]3C[C@@H]3C[C@H]1C(=O)NCc1cccc(Cl)c1F)cn2C(N)=O [Example 472, 3-{2-[(1R,3S,5R)-3-(3-Chloro-2-fluoro-benzylcarbamoyl)-2-aza-bicyclo[3.1.0]hex-2-yl]-2-oxo-ethyl}-5-(2-dimethylamino-ethoxy)-indole-1-carboxylic acid amide]
IC50: 255 nM

NC(=O)n1cc(NC(=O)N2CCC[C@H]2CNc2cccc(OC(F)(F)F)c2)c2ccccc21 [Example 117, 3-({(S)-2-[(3-Trifluoromethoxy-phenylamino)-methyl]-pyrrolidine-1-carbonyl}-amino)-indole-1-carboxylic acid amide]
IC50: 11800 nM

CC1(C)SC[C@@H](C(=O)Nc2cccc(OC(F)(F)F)c2)N1C(=O)Nc1cn(C(N)=O)c2ccccc12 [Example 151, (R)-2,2-Dimethyl-thiazolidine-3,4-dicarboxylic acid 3-[(1-carbamoyl-1H-indol-3-yl)-amide] 4-[(3-trifluoromethoxy-phenyl)-amide]]
IC50: 9320 nM
